Measured values reported in patent EP4745137A1 (Gluetacs Therapeutics (Shanghai) Co., Ltd., priority 2023, dated 2025).

What was measured:
Vcap = assay: Tumor cell proliferation inhibition (CellTiter-Meiluncell Luminescent Cell Viability Assay), Vcap; conditions: Homo sapiens, 96 h, read-out: inhibitory activity (IC50, nM) against tumor cells proliferation, Vcap
[1] = molecular target: T1, human Cereblon WT GST-tagged protein (Homo sapiens, UniProt Q96SW2); assay: CRBN-binding affinity by HTRF (CEREBLON BINDING kit); conditions: HTRF inhibitory activity, CEREBLON BINDING kit; read-out: HTRF IC50
T1 construct: purchased CISBIO 64BDCRBNPEH
T1 sequence (Q96SW2 whole entry): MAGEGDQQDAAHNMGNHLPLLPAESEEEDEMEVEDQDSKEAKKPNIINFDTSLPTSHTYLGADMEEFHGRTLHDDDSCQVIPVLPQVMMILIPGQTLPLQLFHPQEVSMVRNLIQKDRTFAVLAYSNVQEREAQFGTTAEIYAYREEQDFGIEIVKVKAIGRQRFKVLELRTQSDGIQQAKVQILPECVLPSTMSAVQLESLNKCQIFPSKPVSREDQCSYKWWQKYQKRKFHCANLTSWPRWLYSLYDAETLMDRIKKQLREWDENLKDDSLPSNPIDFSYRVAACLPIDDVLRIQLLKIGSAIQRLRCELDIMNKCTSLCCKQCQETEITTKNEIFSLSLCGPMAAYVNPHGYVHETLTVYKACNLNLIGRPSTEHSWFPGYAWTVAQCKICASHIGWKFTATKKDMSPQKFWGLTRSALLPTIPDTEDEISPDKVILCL

CAL-62 = assay: Tumor cell proliferation inhibition (CellTiter-Meiluncell Luminescent Cell Viability Assay), CAL-62; conditions: Homo sapiens, CAL-62, 96 h, read-out: inhibitory activity (IC50, nM) against tumor cells proliferation, CAL-62
Experimental: (§1) The tumor cells used herein were cultured in a cell culture medium listed in table 2 at 37°C in an incubator with 5% CO2. Prior to experimentation, all cell lines used were correctly identified by STR profiling, and tested negative for mycoplasma contamination using a mycoplasma detection kit through routine screenings.
(§2) On the following day, the test compounds of the present disclosure were subjected to serial dilution. […] Subsequently, 0.5 µL of the test compound dilution was transferred into the 96-well plate containing the cells, with each well containing 100 µL of cell culture medium. […] Into the 96-well plate, the diluted test compounds and corresponding detection reagents were added, resulting in final test compound concentrations of 500 nM and 10 nM, respectively. The experimental procedure is described below using the diluted 2 µM test compound as an example.
(§3) After the cells were treated with the compounds of the present disclosure for a specified period (the treatment durations were shown in Table 3), the cell viability assay reagent was added to the culture medium according to the kit's instructions to determine cell viability. […] All controls were treated using the same procedure as the compounds of the present disclosure. The growth inhibition curves for the compounds of the present disclosure were plotted using Prism GraphPad software, and the IC50 values were calculated therefrom.

[2] = test system: Human acute T lymphocytic leukemia cells (Molt-4); assay: Tumor cell proliferation inhibition (CellTiter-Meiluncell Luminescent Cell Viability Assay), Molt-4; conditions: MOLT-4, 96 h, read-out: inhibitory activity (IC50, nM) against tumor cells proliferation, Molt 4
Jurkat = assay: Tumor cell proliferation inhibition (CellTiter-Meiluncell Luminescent Cell Viability Assay), Jurkat; conditions: Homo sapiens, 96 h, read-out: inhibitory activity (IC50, nM) against tumor cells proliferation, Jurkat
CCRF-CEM = assay: Tumor cell proliferation inhibition (CellTiter-Meiluncell Luminescent Cell Viability Assay), CCRF-CEM; conditions: Homo sapiens, 96 h, read-out: inhibitory activity (IC50, nM) against tumor cells proliferation, CCRF-CEM
GSPT1 = molecular target: T2, GSPT1 (Homo sapiens, UniProt P15170+Q96SW2); assay: Western-blot assay of substrate protein degradation in hPBMCs, GSPT1; format: cell-based; conditions: 24 hours of compound treatment, compounds tested at 50 nM and 500 nM (concentration of the table not stated)
T2 construct: endogenous in cells; host or cells: hPBMCs (Milecell Biotechnologies)
T2 sequence (P15170 whole entry): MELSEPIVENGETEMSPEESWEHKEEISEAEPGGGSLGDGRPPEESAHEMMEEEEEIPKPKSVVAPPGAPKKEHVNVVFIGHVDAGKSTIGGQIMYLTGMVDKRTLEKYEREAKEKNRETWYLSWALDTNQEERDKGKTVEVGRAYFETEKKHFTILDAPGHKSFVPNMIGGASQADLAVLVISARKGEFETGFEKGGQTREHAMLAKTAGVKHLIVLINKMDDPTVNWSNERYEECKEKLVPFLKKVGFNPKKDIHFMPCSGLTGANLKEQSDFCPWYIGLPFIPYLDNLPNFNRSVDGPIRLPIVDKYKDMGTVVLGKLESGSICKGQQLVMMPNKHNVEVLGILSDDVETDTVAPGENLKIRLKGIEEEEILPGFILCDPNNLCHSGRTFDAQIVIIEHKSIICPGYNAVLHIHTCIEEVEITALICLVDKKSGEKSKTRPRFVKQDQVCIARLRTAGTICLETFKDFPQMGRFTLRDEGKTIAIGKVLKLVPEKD
T2 sequence (Q96SW2 whole entry): as the sequence (Q96SW2 whole entry) above
T2 sequence (Q16531 whole entry partner): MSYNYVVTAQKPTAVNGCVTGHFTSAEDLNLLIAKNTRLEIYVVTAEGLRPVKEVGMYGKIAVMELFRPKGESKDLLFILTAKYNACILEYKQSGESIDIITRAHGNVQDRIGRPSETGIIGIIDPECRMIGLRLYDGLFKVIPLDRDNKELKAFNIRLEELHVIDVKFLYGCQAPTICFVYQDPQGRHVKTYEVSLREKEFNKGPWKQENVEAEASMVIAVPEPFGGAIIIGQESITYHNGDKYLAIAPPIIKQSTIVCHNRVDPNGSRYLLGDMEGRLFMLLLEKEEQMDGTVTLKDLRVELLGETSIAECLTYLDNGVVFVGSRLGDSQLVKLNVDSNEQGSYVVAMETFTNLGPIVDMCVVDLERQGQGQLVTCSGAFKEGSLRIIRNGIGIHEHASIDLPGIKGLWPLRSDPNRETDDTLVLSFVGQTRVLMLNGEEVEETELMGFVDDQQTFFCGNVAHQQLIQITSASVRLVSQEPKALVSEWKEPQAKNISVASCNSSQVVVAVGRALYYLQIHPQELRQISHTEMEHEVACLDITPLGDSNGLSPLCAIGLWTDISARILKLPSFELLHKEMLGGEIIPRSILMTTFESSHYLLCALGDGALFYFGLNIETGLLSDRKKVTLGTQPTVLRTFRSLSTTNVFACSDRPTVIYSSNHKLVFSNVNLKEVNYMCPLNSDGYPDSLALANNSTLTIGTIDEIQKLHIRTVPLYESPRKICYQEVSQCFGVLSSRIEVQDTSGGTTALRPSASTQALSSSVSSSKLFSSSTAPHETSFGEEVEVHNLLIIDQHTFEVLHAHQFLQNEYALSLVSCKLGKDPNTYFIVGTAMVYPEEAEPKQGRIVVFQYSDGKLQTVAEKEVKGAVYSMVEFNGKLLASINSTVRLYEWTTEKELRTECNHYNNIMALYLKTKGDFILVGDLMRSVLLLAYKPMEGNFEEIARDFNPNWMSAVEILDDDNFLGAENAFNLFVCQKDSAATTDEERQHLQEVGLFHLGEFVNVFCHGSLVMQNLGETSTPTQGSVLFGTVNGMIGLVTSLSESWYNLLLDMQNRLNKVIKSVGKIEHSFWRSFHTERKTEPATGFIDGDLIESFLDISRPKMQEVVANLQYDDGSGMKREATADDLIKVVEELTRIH

IKZF2 = molecular target: T3, IKZF2 (Homo sapiens, UniProt Q96SW2+Q9UKS7); assay: Western-blot assay of substrate protein degradation in hPBMCs, IKZF2; format: cell-based; conditions: 24 hours of compound treatment, compounds tested at 50 nM and 500 nM (concentration of the table not stated)
T3 construct: endogenous in cells; host or cells: hPBMCs (Milecell Biotechnologies)

IKZF3 = molecular target: T4, IKZF3 (Homo sapiens, UniProt Q96SW2+Q9UKT9); assay: Western-blot assay of substrate protein degradation in hPBMCs, IKZF3; format: cell-based; conditions: 24 hours of compound treatment, compounds tested at 50 nM and 500 nM (concentration of the table not stated)
T4 construct: endogenous in cells; host or cells: hPBMCs (Milecell Biotechnologies)
T4 sequence (Q9UKT9 whole entry): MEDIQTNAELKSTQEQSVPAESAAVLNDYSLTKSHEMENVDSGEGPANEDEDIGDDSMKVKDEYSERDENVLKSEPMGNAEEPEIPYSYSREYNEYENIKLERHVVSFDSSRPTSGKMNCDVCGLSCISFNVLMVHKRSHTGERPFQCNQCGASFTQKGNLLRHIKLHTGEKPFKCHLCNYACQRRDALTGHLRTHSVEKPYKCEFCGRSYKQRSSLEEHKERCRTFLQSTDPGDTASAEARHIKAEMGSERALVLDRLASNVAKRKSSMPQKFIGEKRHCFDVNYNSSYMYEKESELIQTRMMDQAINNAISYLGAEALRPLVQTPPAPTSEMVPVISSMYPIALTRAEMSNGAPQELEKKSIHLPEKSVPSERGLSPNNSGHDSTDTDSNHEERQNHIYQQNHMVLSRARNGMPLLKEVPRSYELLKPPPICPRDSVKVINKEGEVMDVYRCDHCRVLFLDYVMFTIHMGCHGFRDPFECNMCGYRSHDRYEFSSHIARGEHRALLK
T4 sequence (Q96SW2 whole entry): as the sequence (Q96SW2 whole entry) above
T4 sequence (Q16531 whole entry partner): as the sequence (Q16531 whole entry partner) above

CK1α = molecular target: T5, CK1α (Homo sapiens, UniProt P48729+Q96SW2); assay: Western-blot assay of substrate protein degradation in hPBMCs, CK1α; format: cell-based; conditions: 24 hours of compound treatment, compounds tested at 50 nM and 500 nM (concentration of the table not stated)
T5 construct: endogenous in cells; host or cells: hPBMCs (Milecell Biotechnologies)
T5 sequence (P48729 whole entry): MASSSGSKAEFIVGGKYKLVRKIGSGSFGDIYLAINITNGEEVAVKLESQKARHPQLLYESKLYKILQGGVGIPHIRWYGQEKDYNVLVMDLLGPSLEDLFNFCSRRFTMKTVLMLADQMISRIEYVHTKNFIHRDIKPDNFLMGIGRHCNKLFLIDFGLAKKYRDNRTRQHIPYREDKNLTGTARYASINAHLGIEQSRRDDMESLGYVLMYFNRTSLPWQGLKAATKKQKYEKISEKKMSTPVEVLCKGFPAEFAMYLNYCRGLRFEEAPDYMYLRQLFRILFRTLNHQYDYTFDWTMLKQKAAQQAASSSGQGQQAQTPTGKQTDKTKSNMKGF
T5 sequence (Q96SW2 whole entry): as the sequence (Q96SW2 whole entry) above
T5 sequence (Q16531 whole entry partner): as the sequence (Q16531 whole entry partner) above

MM.1R = assay: Tumor cell proliferation inhibition (CellTiter-Meiluncell Luminescent Cell Viability Assay), MM.1R; conditions: Homo sapiens, 96 h, read-out: inhibitory activity (IC50, nM) against tumor cells proliferation, MM.1R
Experimental: as §1, §2, §3

IKZF1 = molecular target: T6, IKZF1 (Homo sapiens, UniProt Q13422+Q96SW2); assay: Western-blot assay of substrate protein degradation in hPBMCs, IKZF1; format: cell-based; conditions: 24 hours of compound treatment, compounds tested at 50 nM and 500 nM (concentration of the table not stated)
T6 construct: endogenous in cells; host or cells: hPBMCs (Milecell Biotechnologies)
T6 sequence (Q13422 whole entry): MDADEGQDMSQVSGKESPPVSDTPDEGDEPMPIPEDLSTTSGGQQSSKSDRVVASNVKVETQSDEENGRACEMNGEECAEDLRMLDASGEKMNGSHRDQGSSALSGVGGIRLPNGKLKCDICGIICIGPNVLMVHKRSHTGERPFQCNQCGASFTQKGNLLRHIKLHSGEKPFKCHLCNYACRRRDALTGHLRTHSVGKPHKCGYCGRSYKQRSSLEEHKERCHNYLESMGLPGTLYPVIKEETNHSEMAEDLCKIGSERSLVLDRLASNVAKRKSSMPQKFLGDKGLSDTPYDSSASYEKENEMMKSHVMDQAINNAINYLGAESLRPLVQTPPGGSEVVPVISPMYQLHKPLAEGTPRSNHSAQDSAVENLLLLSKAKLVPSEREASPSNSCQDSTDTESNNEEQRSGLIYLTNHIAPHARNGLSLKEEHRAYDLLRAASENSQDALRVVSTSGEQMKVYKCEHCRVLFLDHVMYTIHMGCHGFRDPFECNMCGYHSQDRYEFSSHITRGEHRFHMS
T6 sequence (Q96SW2 whole entry): as the sequence (Q96SW2 whole entry) above
T6 sequence (Q16531 whole entry partner): as the sequence (Q16531 whole entry partner) above

WEE1 = molecular target: T7, WEE1 (Homo sapiens, UniProt P30291+Q96SW2); assay: Western-blot assay of substrate protein degradation in hPBMCs, WEE1; format: cell-based; conditions: 24 hours of compound treatment, compounds tested at 50 nM and 500 nM (concentration of the table not stated)
T7 construct: endogenous in cells; host or cells: hPBMCs (Milecell Biotechnologies)
T7 sequence (P30291 whole entry): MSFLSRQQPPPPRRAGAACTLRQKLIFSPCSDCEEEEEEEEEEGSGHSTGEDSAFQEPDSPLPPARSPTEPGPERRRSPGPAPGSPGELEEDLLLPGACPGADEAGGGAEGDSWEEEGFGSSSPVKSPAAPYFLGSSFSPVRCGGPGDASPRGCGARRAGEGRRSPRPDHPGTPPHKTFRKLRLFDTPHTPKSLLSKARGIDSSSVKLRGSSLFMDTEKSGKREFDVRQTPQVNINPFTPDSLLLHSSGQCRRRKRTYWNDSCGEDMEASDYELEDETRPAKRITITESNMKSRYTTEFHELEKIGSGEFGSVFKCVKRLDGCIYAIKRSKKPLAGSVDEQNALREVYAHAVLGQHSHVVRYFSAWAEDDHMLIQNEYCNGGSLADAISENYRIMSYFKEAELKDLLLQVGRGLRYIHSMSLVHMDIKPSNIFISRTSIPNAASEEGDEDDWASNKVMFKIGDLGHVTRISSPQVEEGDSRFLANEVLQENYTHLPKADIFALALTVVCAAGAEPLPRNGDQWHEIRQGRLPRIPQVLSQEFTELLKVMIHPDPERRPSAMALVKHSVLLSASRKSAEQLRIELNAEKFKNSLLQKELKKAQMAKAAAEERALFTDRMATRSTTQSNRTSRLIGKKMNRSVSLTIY
T7 sequence (Q96SW2 whole entry): as the sequence (Q96SW2 whole entry) above
T7 sequence (Q16531 whole entry partner): as the sequence (Q16531 whole entry partner) above

NCI-H1975 = assay: Tumor cell proliferation inhibition (CellTiter-Meiluncell Luminescent Cell Viability Assay), NCI-H1975; conditions: Homo sapiens, NCI-H1975, 96 h, read-out: inhibitory activity (IC50, nM) against tumor cells proliferation, H1975
[3] = test system: Human breast cancer cells (MDA-MB-231); assay: Tumor cell proliferation inhibition (CellTiter-Meiluncell Luminescent Cell Viability Assay), MDA-MB-231; conditions: MDA-MB-231, 96 h, read-out: inhibitory activity (IC50, nM) against tumor cells proliferation, MDA-MB-231
Experimental: as §1, §2, §3

Compound | IC50 (Vcap) | IC50 [1] | IC50 (CAL-62) | IC50 [2] | IC50 (Jurkat) | IC50 (CCRF-CEM) | GSPT1 substrate protein remaining % (GSPT1) | IKZF2 substrate protein remaining % (IKZF2) | IKZF3 substrate protein remaining % (IKZF3) | CK1a substrate protein remaining % (CK1α) | IC50 (MM.1R) | IKZF 1 substrate protein remaining % (IKZF1) | Weel substrate protein remaining % (WEE1) | IC50 (NCI-H1975) | IC50 [3]
O=C1CCC(N2Cc3cc(CN4CCN(c5cc(Cl)ccn5)CC4)ccc3C2=O)C(=O)N1 (stereo not drawn) [GT-04430, 3-(5-((4-(4-chloropyridin-2-yl)piperazin-1-yl)methyl)-1-oxoisoindolin-2-yl)piperidine-2,6-dione] | 100 to 500 nM | 500 to 1000 nM | 50 to 100 nM | 10 to 50 nM | 10 to 50 nM | 10 to 50 nM | A (0% ≤ substrate protein remaining % ≤ 80%) | A (0% ≤ substrate protein remaining % ≤ 80%) | A (0% ≤ substrate protein remaining % ≤ 80%) | B (80%< substrate protein remaining %≤ 100%) | 50 to 100 nM | A (0% ≤ substrate protein remaining % ≤ 80%) | B (80%< substrate protein remaining %≤ 100%) | – | –
Cc1ccccc1N1CCN(Cc2ccc3c(c2)CN(C2CCC(=O)NC2=O)C3=O)CC1 (stereo not drawn) [GT-04461, 3-(1-oxo-5-((4-(o-tolyl)piperazin-1-yl)methyl)isoindolin-2-yl)piperidine-2,6-dione] | 100 to 500 nM | 1000 to 1500 nM | 50 to 100 nM | 10 to 50 nM | 10 to 50 nM | 10 to 50 nM | A (0% ≤ substrate protein remaining % ≤ 80%) | A (0% ≤ substrate protein remaining % ≤ 80%) | A (0% ≤ substrate protein remaining % ≤ 80%) | B (80%< substrate protein remaining %≤ 100%) | 10 to 50 nM | A (0% ≤ substrate protein remaining % ≤ 80%) | A (0% ≤ substrate protein remaining % ≤ 80%) | – | –
O=C1CCC(N2Cc3cc(CN4CCC(c5ccc(Br)cc5)CC4)ccc3C2=O)C(=O)N1 (stereo not drawn) [GT-04493, 3-(5-((4-(4-bromophenyl)piperidin-1-yl)methyl)-1-oxoisoindolin-2-yl)piperidine-2,6-dione] | 100 to 500 nM | 500 to 1000 nM | 10 to 50 nM | – | 10 to 50 nM | 10 to 50 nM | A (0% ≤ substrate protein remaining % ≤ 80%) | A (0% ≤ substrate protein remaining % ≤ 80%) | B (80%< substrate protein remaining %≤ 100%) | A (0% ≤ substrate protein remaining % ≤ 80%) | 10 to 50 nM | B (80%< substrate protein remaining %≤ 100%) | A (0% ≤ substrate protein remaining % ≤ 80%) | – | –
O=C1CCC(N2Cc3cc(CN4CCC(c5cccc(F)c5F)CC4)ccc3C2=O)C(=O)N1 (stereo not drawn) [GT-04552, 3-(5-((4-(2,3-difluorophenyl)piperidin-1-yl)methyl)-1-oxoisoindolin-2-yl)piperidine-2,6-dione] | – | 1000 to 1500 nM | 5 to 10 nM | 1 to 5 nM | 1 to 5 nM | – | A (0% ≤ substrate protein remaining % ≤ 80%) | A (0% ≤ substrate protein remaining % ≤ 80%) | A (0% ≤ substrate protein remaining % ≤ 80%) | A (0% ≤ substrate protein remaining % ≤ 80%) | 5 to 10 nM | A (0% ≤ substrate protein remaining % ≤ 80%) | A (0% ≤ substrate protein remaining % ≤ 80%) | 10 to 50 nM | 50 to 100 nM
